Experimental data published in PMC12310481, “Sequence, characterization and pharmacological analyses of the adipokinetic hormone receptor in the stick insect, Carausius morosus” (Frontiers in Endocrinology, 2025).
Several values for one entry are separate records, joined by “and”; a condition that tells them apart may be missing. Identical values can stand only once. Non-standard residues stand in square brackets, D forms with d. Residues, ends and D or L forms follow the SMILES beside them. pGlu = O=C1CC[C@@H](C(=O)O)N1

What was measured:
[1] = system: Carausius morosus AKH receptor (Carmo-AKHR); assay: Calcium bioluminescence (aequorin) reporter assay, CHO-K1 cells stably expressing Carmo-AKHR; assay type: cell-based; conditions: for EC50: CHO-K1 stably expressing Carmo-AKHR, transiently aequorin, luminescence measured 20 s, from dose-response activation curves, 3 to 4 independent biological replicates, normalized to ATP maximum, read-out: EC50 value; for Fold-reduction in activity (receptor activation relative to Carmo-HrTH-II): ratio of EC50 relative to Carmo-HrTH-II
Procedure: Functional activation of Carmo-AKHR was carried out by following mammalian cell culture procedures as previously described ([20], [29]) with the following modifications. […] At 24 h post-transfection, cells were selected in DMEM:F12 media containing 10% heat-inactivated fetal bovine serum (Wisent, St. Bruno, QC), 1x antimycotic-antibiotic and 600 μg/mL geneticin (G418) until clonal recombinant cells were evident in transfected cells while no live cells were present in non-transfected CHO-K1 cells (control). Individual clonal recombinant colonies were seeded into separate wells of a 96 well cell-culture dish (Sarstedt Inc., Montreal, QC) and grown to confluence while maintaining geneticin selection. To identify clonal recombinant lines with optimal Carmo-AKHR activity yielding the greatest signal-to-noise ratio, individual clonal recombinant lines were assayed in the bioluminescence reporter assay as described previously ([30]). […] The recombinant cell line showing the optimal luminescent response with greatest signal-to-noise ratio was expanded for preparation of cryo-stocks and subsequent detailed investigation of receptor specificity. […] Bruno, QC), 250 μg/mL Geneticin (MilliporeSigma Canada Ltd., Oakville, ON) and 1X antimycotic-antibiotic (ThermoFisher Scientific, Whitby, ON). […] Transfection was completed with PolyJetTM DNA In Vitro Transfection Reagent (FroggaBio, Toronto, ON) following manufacturer recommendations for transfection of adherent cells. At 48 hours post-transfection, cells were detached from culture flasks using Dulbecco's PBS (Wisent, St. Bruno, QC) containing 5 mM Ethylenediaminetetraacetic acid (EDTA) and were prepared for the functional assay as previously described ([30]). […] Immediately after injection of the cells into each well, luminescence was measured for 20 s using a Synergy 2 Multi-Mode Microplate Reader (BioTek, Winooski, VT, USA). […] Data were analyzed using a one-way or two-way ANOVA and Tukey's multiple comparisons post-hoc test, with differences between treatments considered significant if p<0.05.

Carausius morosus = conditions: in vivo bioassay, stick insect; cited from earlier work
Description: C. morusus produces decapeptide AKHs that function optimally via the Carmo-AKHR. Two shorter bioanalogs with high identity to Carmo-HrTH were available for testing in the receptor activation assay: Triin-AKH, an amidated nonapeptide that ends in Gly^9 and the amidated octapeptide, Peram-CAH-II that ends in Trp^8. These peptides produced receptor activation curves with EC50 values similar to those of the endogenous AKH peptides ( Table 2 ). Taken on its own, this may indicate that the C-terminal amino acids of Carmo-HrTH (thus Thr^10 and Gly^9) are not critical for activation of Carmo-AKHR, and ... || Replacing the aromatic amino acids, Phe^4 or Trp^8 that are iconic for most natural members of the AKH family, with a nonpolar amino acid like Ala, completely abolished receptor activation in the current in vitro study. Earlier in vivo investigations on L. migratoria ([58]), as well as AKH/RPCH ligand-receptor model studies on S. gregaria and D. pulex made it clear that these two aromatic residues are critical for receptor binding ([55], [56]). […] Clearly, this position in the AKH ligand appear ...

[2] = system: Carausius morosus AKH receptor (Carmo-AKHR); assay type: cell-based; conditions: transient Carmo-AKHR, co-expressing murine promiscuous G protein
[3] = system: endogenously expressed purinoceptors; assay: ATP positive control in the bioluminescence assay; assay type: cell-based, Chinese hamster; conditions: 50 μM ATP
Procedure: Synthetic peptide stocks of naturally-occurring AKH-related peptides [corazonin, adipokinetic hormone corazonin-like peptide (ACP)], alanine-substituted analogs of Carmo-HrTH-II, natural C. morosus AKH peptides, and several AKHs from other arthropod species in synthetic form were used for preparation of serial dilutions all of which were prepared in assay media (DMEM-F12 media containing 0.1% bovine serum albumin, 1X antimycotic-antibiotic) and loaded in triplicate or quadruplicate into 96-well white luminescence plates (Greiner Bio-One, Germany). Cells stably expressing Carmo-AKHR and transiently expressing aequorin were loaded with an automated injector unit into each individual well containing different test compounds at various concentrations, including assay media alone (negative control wells) and 50 μM ATP (positive control wells) acting on endogenously expressed purinoceptors ([34], [35]). Immediately after injection of the cells into each well, luminescence was measured for 20 s using a Synergy 2 Multi-Mode Microplate Reader (BioTek, Winooski, VT, USA). […] Data were analyzed using a one-way or two-way ANOVA and Tukey’s multiple comparisons post-hoc test, with differences between treatments considered significant if p<0.05.

Compound | EC50 [1] [nM] | Hypertrehalosemic effect in vivo (in words) (Carausius morosus) | Fold-reduction in activity (receptor activation relative to Carmo-HrTH-II) [1] | Luminescence relative to assay media (BSA) alone [2] | Maximal luminescent response [3]
CC(C)C[C@H](NC(=O)[C@@H]1CCC(=O)N1)C(=O)N[C@@H](CC(N)=O)C(=O)N[C@@H](Cc1ccccc1)C(=O)N[C@H](C(=O)N1CCC[C@H]1C(=O)N[C@@H](CC(N)=O)C(=O)N[C@@H](Cc1c[nH]c2ccccc12)C(=O)NCC(=O)N[C@H](C(N)=O)[C@@H](C)O)[C@@H](C)O [Locmi-AKH-I] ([pGlu]LNFTPNWGT-NH2) | 4140 | biological function is impaired | – | – | –
CC(C)C[C@H](NC(=O)[C@@H]1CCC(=O)N1)C(=O)N[C@@H](CC(N)=O)C(=O)N[C@@H](Cc1ccccc1)C(=O)N[C@H](C(=O)N1CCC[C@H]1C(=O)N[C@@H](CC(N)=O)C(=O)N[C@@H](Cc1c[nH]c2ccccc12)C(=O)NCC(=O)N[C@@H](CO)C(N)=O)[C@@H](C)O [Phymo-AKH] ([pGlu]LNFTPNWGS-NH2) | 5050 | absence of function in vivo | 68.66 fold | – | –
CC(C)C[C@H](NC(=O)[C@@H]1CCC(=O)N1)C(=O)N[C@H](C(=O)N[C@@H](Cc1ccccc1)C(=O)N[C@H](C(=O)N1CCC[C@H]1C(=O)N[C@@H](CO)C(=O)N[C@@H](Cc1c[nH]c2ccccc12)C(N)=O)[C@@H](C)O)[C@@H](C)O [Aedae-AKH] ([pGlu]LTFTPSW-NH2) | 1030 | – | 14 fold and 14.00 fold | ~ 3 fold | –
CC(C)C[C@H](NC(=O)[C@@H]1CCC(=O)N1)C(=O)N[C@H](C(=O)N[C@@H](Cc1ccccc1)C(=O)N[C@H](C(=O)N1CCC[C@H]1C(=O)N[C@@H](CC(N)=O)C(=O)N[C@@H](Cc1c[nH]c2ccccc12)C(N)=O)[C@@H](C)O)[C@@H](C)O [Peram-CAH-II] ([pGlu]LTFTPNW-NH2) | 388 | only about a third of what the native decapeptide achieved | 5 fold and 5.28 fold | – | –
CC(C)C[C@H](NC(=O)[C@@H]1CCC(=O)N1)C(=O)N[C@H](C(=O)N[C@@H](Cc1ccccc1)C(=O)N[C@H](C(=O)N1CCC[C@H]1C(=O)N[C@@H](CC(N)=O)C(=O)N[C@@H](Cc1c[nH]c2ccccc12)C(=O)NCC(=O)N[C@@H](CO)C(N)=O)[C@@H](C)O)[C@@H](C)O [Phyle-CC] ([pGlu]LTFTPNWGS-NH2) | 18 | not at all (in vivo) affected | 0.24 fold | – | –
Nc1ncnc2c1ncn2[C@@H]1O[C@H](COP(=O)(O)OP(=O)(O)OP(=O)(O)O)[C@@H](O)[C@H]1O [ATP] | – | – | – | – | about 12 000
